Assay results published in article PMC6982022 (International Journal of Molecular Sciences, 2019).
Where two headings read alike, the source gives them in different places.

Legend:
C57BL/6 mice = settings: cited from earlier work
male CD rats = assay: Serum hormone levels during mating trial; assay type: in vivo, rat; settings: 150 mg/kg/day; weeks 0, 1, 4 and 7; ANOVA
Description: Rats were weighed on day 0 (first day of dosing) and weekly thereafter. Dosages were adjusted based on the most recent body weight. Males were cohabited with untreated females (one male per two females) weekly at weeks 1 through 9 [38, 39]. Females were necropsied seven days after separation from males to determine the numbers of implantation sites. Individual male rats were bled from the tail vein at weeks 0, 1, 4, and 7 and serum was harvested by centrifugation. At week 11, the male rats were weighed, anesthetized, and exsanguinated. Sera were analyzed for inhibin B by ELISA (enzyme-linked immunosorbent assay), and rat follicle stimulating hormone (rFSH) and testosterone by radioimmunoassay. Testes, epididymides, ventral prostates, and seminal vesicles were excised and weighed. The left testis was homogenized, and spermatid head counts obtained.
Statistical analysis using the Student’s t-test was performed on body weights, paired testes weights, ventral prostrate weights, seminal vesicle weights, paired epididymal weights, spermatid head counts, percent motile and normal epididymal sperm. We used analysis of variance (ANOVA) for serum inhibin B, rFSH, and testosterone, since these measurements were repeated throughout the study period. The effect of NB-DNJ at 15 mg/kg/day dose in the rat model was studied following the same protocol as that for NB-DGJ.

CGT = settings: cited from earlier work
C57BL6J mice = assay: Epididymal sperm acrosome morphology (FITC-PSA staining) after 35 days oral dosing; assay type: in vivo, mouse; settings: for Sperm morphology Abnormal, average (%) / Sperm morphology Normal, average (%): six mice/group
Method: Groups of six mice, each, were used for three different doses of NB-DNJ or NB-DGJ formulated in milliQ water at 50 mg/kg, 25 mg/kg and 15 mg/kg, respectively. Control groups were given an equivalent volume of water. Animals were given compound or control once daily for 35 consecutive days via oral gavage using animal feeding needles (Biomedical Needles, Popper, NY, USA). Body weight was noted every week for all treatment groups. Mice were euthanized at the end of a 35 days dosing regimen using CO2 asphyxia followed by cervical dislocation. Testes were harvested, weighed and stored in Bouin’s fixative for 48 h, then sliced into two halves, and stored in fresh Bouin’s for another 24 h. The tissue slices were then rinsed in 70% ethanol and processed and stained for histology using a standard protocol for Hematoxylin and eosin staining. Spermatids with elongated and abnormally shaped heads were counted per 20 fields and average number calculated for 6 mice/group.
For sperm retrieval, epididymis was removed from the animal and placed in Petri dish. One mL of capacitation buffer (Capacitation buffer consisted of 110 mM NaCl, 2.68 mM KCl, 0.36 mM NaH2PO4, 25 mM NaHCO3, 0.49 mM MgCl2, 2.40 mM CaCl2, 25 mM HEPES, 5.50 mM Glucose, 1 mM Pyruvic acid, pH 7.4; Tash and Bracho, 1998) at room temperature was added to the dish. Using forceps, the caput of the epididymis was held in place and the cauda sliced repeatedly with a razor blade. The spermatozoa were allowed to disperse for 15 min with gentle swirling intermittently. A 100 µL aliquot of the sperm suspension was dropped onto a standard glass microscope slide (Fisherbrand superfrost microscope slides 25 × 75 × 1.0 mm)) and smeared with side of pipette tip. The slides were air dried flat for 1 h at room temperature. The sperm smear was fixed in methanol for 2 min. The sperm smear was than stained using FITC-PSA (Fluorescein isothiocyanate Pisum Sativum Agglutinin; Vector Laboratories, Burlingame, CA) was diluted 1:7000 in PBS containing 1:10,000 DAPI dihydrochloride, FluoroPure™ grade, Invitrogen) (≥98% pure) to make the stock solution. To each slide, 100 µL of FITC-PSA was added and spread out with edge of pipette tip to cover the dried sperm smear. The slides were incubated at 37 °C for 10 min, and then washed with 5 changes of PBS for 5 min each. The slides were air-dried and mounted with 20 µL Vectashield mounting medium for fluorescence (Vector Laboratories, Burlingame, CA, USA) and observed. Slides were viewed on a Nikon IX-81 microscope under a 40× objective using FITC and DAPI filter to visualize acrosome morphology. The phase contrast images were also collected at the same magnification to compare morphological details.

For `CCCCN1C[C@H](O)[C@@H](O)[C@@H](O)[C@H]1CO` [NB-DGJ, N-butyldeoxygalactonojirimycin], the “Effect on fertility (in words)” value (C57BL/6 mice; C57BL/6J male mice, 150 mg/kg) is given as “reversible infertility”, the “Time for fertility to resume” value (C57BL/6 mice; C57BL/6J mice) is given as “approximately three weeks” and the “Testicular histology, spermiogenesis (in words)” value (C57BL/6 mice; dose equivalent to 1200 mg/kg of NB-DNJ) is given as “disrupts spermiogenesis”. For the same molecule, the “Serum inhibin B versus control” value (male CD rats) was “No significant differences”, the “Serum rFSH versus control” value (male CD rats) was “No significant differences” and the “Serum testosterone versus control” value (male CD rats) was “No significant differences”. For the same molecule, the IC50 (CGT; ref 20) was 41.4 µM, the IC50 (CGT; ref 36) was 10 µM and the “Sperm morphology Abnormal, average (%)” value (C57BL6J mice; 15 mg/kg oral daily) was 51.59%. The “Sperm morphology Normal, average (%)” value (C57BL6J mice; 15 mg/kg oral daily) was 48.4%, the “Sperm morphology Abnormal, average (%)” value (C57BL6J mice; 25 mg/kg oral daily) was 62.05% and the “Sperm morphology Normal, average (%)” value (C57BL6J mice; 25 mg/kg oral daily) was 37.85%. The “Sperm morphology Abnormal, average (%)” value (C57BL6J mice; 50 mg/kg oral daily) was 88.21%, the “Sperm morphology Normal, average (%)” value (C57BL6J mice; 50 mg/kg oral daily) was 11.78% and the “Sperm acrosome morphology (in words)” value (C57BL6J mice; 15, 25 and 50 mg/kg oral daily) was “dose-dependent increase in the number of abnormal spermatozoa”.
